“And” between values parts separate entries of the source, which are not always exact repeats. Equal values may be shown once.
Key:
PfMDH [1] = molecular target: T1, PfMDH (Plasmodium falciparum, UniProt Q6VVP7); assay: Thermal shift assay (TSA); format: binding; details: for TSA melting curve raw signal: triplicate columns; for TSA melting curve raw fluorescence signal: three replicate columns
T1 construct: The full-length WT PfMDH gene was cloned into pETM-13; made in house; host or cells: E. coli Rosetta 2 (DE3) pLysS
T1 sequence (Q6VVP7 entry or part of it): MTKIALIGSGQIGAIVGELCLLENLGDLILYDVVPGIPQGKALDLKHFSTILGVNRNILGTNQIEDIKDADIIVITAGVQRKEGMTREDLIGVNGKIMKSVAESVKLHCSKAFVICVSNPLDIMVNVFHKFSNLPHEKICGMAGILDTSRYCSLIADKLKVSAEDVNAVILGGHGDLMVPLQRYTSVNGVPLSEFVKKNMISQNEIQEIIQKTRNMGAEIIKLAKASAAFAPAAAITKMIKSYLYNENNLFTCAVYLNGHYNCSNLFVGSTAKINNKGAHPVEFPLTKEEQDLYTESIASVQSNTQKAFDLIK
Outline: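 10 μM PfMDH with 1 mM compound in 100 mM Na–phosphate pH 7.4, 400 mM NaCl, 10× Sypro Orange; 1% DMSO controls. Melting inflection points taken as Tm; shifts >1 °C read as stabilization, negative shifts as destabilization.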

PfMDH [2] = molecular target: T1, PfMDH; assay: Kinetics experiment with varying L-malate, substrate inhibition model; format: biochemical; set-up: key to Ki (best-fit value, substrate inhibition model): Ki in mM; key to Vmax (best-fit value): Vmax in U/mg; 4PA kinetics raw data (rate): unit not given here; details: for Ki (best-fit value, substrate inhibition model) / Vmax (best-fit value): pH 10.2, Supplementary Table 6; for 4PA kinetics raw data (rate): replicates

## Nc1nc(-c2ccccc2)cs1 [4PA, 4-phenylthiazol-2-amine]
PfMDH [1]; 1 mM compound vs DMSO control
  ΔTm at 1000 µM: -3 °C
PfMDH [1]; 1 mM compound, 10 μM PfMDH, DMSO control Tm 58
  Tm: 55.0 ± 0.2 °C
PfMDH [1]; Temperature 25
  TSA melting curve raw signal: 3101.562 and 3333.877 and 3419.875
PfMDH [1]; Temperature 28.5
  TSA melting curve raw signal: 2982.864 and 3197.483 and 3331.476
PfMDH [1]; Temperature 29
  TSA melting curve raw signal: 2965.133 and 3176.088 and 3316.215
PfMDH [1]; Temperature 29.5
  TSA melting curve raw signal: 2946.457 and 3153.433 and 3298.876
PfMDH [1]; Temperature 30
  TSA melting curve raw signal: 2926.726 and 3129.047 and 3278.959
PfMDH [1]; Temperature 30.5
  TSA melting curve raw signal: 2906.089 and 3103.354 and 3257.233
PfMDH [1]; Temperature 31
  TSA melting curve raw signal: 2885.408 and 3077.356 and 3234.634
PfMDH [1]; Temperature 31.5
  TSA melting curve raw signal: 2865.452 and 3051.863 and 3212.437
PfMDH [1]; Temperature 32
  TSA melting curve raw signal: 2847.461 and 3027.963 and 3192.183
PfMDH [1]; Temperature 32.5
  TSA melting curve raw signal: 2831.845 and 3007.388 and 3175.246
PfMDH [1]; Temperature 33
  TSA melting curve raw signal: 2819.491 and 2990.613 and 3162.466
PfMDH [1]; Temperature 33.5
  TSA melting curve raw signal: 2810.837 and 2978.017 and 3154.456
PfMDH [1]; Temperature 34
  TSA melting curve raw signal: 2806.172 and 2970.163 and 3151.8
PfMDH [1]; Temperature 34.5
  TSA melting curve raw signal: 2805.279 and 2966.904 and 3154.834
PfMDH [1]; Temperature 35
  TSA melting curve raw signal: 2808.767 and 2967.899 and 3163.624
PfMDH [1]; Temperature 35.5
  TSA melting curve raw signal: 2816.443 and 2973.639 and 3178.538
PfMDH [1]; Temperature 36
  TSA melting curve raw signal: 2828.317 and 2984.069 and 3199.383
PfMDH [1]; Temperature 36.5
  TSA melting curve raw signal: 2844.427 and 2998.946 and 3225.589
PfMDH [1]; Temperature 37
  TSA melting curve raw signal: 2864.693 and 3018.271 and 3256.517
PfMDH [1]; Temperature 37.5
  TSA melting curve raw signal: 2888.742 and 3042.246 and 3291.976
PfMDH [1]; Temperature 38
  TSA melting curve raw signal: 2916.555 and 3070.379 and 3330.731
PfMDH [1]; Temperature 38.5
  TSA melting curve raw signal: 2948.507 and 3102.617 and 3372.906
PfMDH [1]; Temperature 39
  TSA melting curve raw signal: 2984.548 and 3139.232 and 3418.523
PfMDH [1]; Temperature 39.5
  TSA melting curve raw signal: 3025.238 and 3180.62 and 3468.123
PfMDH [1]; Temperature 40
  TSA melting curve raw signal: 3070.846 and 3226.341 and 3521.558
PfMDH [1]; Temperature 40.5
  TSA melting curve raw signal: 3121.424 and 3276.836 and 3579.878
PfMDH [1]; Temperature 41
  TSA melting curve raw signal: 3176.735 and 3332.701 and 3643.235
PfMDH [1]; Temperature 41.5
  TSA melting curve raw signal: 3236.92 and 3394.066 and 3712.066
PfMDH [1]; Temperature 42
  TSA melting curve raw signal: 3301.878 and 3461.348 and 3786.574
PfMDH [1]; Temperature 42.5
  TSA melting curve raw signal: 3371.782 and 3535.427 and 3867.61
PfMDH [1]; Temperature 43
  TSA melting curve raw signal: 3446.967 and 3616.442 and 3955.318
PfMDH [1]; Temperature 43.5
  TSA melting curve raw signal: 3527.686 and 3704.688 and 4050.074
PfMDH [1]; Temperature 44
  TSA melting curve raw signal: 3614.17 and 3800.745 and 4152.165
PfMDH [1]; Temperature 44.5
  TSA melting curve raw signal: 3706.596
PfMDH [1]; Temperature 73.5
  TSA melting curve raw fluorescence signal: 6991.444 and 7655.524 and 7881.758
PfMDH [1]; Temperature 74
  TSA melting curve raw fluorescence signal: 6939.612 and 7600.258 and 7826.265
PfMDH [1]; Temperature 74.5
  TSA melting curve raw fluorescence signal: 6888.076 and 7546.666 and 7771.787
PfMDH [1]; Temperature 75
  TSA melting curve raw fluorescence signal: 6836.407 and 7493.684 and 7717.224
PfMDH [1]; Temperature 75.5
  TSA melting curve raw fluorescence signal: 6784.183 and 7441.52 and 7662.752
PfMDH [1]; Temperature 76
  TSA melting curve raw fluorescence signal: 6731.402 and 7389.749 and 7608.451
PfMDH [1]; Temperature 76.5
  TSA melting curve raw fluorescence signal: 6679.444 and 7337.884 and 7553.49
PfMDH [1]; Temperature 77
  TSA melting curve raw fluorescence signal: 6628.226 and 7285.068 and 7497.822
PfMDH [1]; Temperature 77.5
  TSA melting curve raw fluorescence signal: 6578.245 and 7231.451 and 7441.978
PfMDH [1]; Temperature 78
  TSA melting curve raw fluorescence signal: 6529.803 and 7176.607 and 7385.969
PfMDH [1]; Temperature 78.5
  TSA melting curve raw fluorescence signal: 6482.748 and 7121.157 and 7329.423
PfMDH [1]; Temperature 79
  TSA melting curve raw fluorescence signal: 6436.76 and 7065.937 and 7274.048
PfMDH [1]; Temperature 79.5
  TSA melting curve raw fluorescence signal: 6391.899 and 7012.239 and 7219.892
PfMDH [1]; Temperature 80
  TSA melting curve raw fluorescence signal: 6347.542 and 6960.087 and 7166.546
PfMDH [1]; Temperature 80.5
  TSA melting curve raw fluorescence signal: 6302.907 and 6909.426 and 7113.859
PfMDH [1]; Temperature 81
  TSA melting curve raw fluorescence signal: 6257.989 and 6859.788 and 7062.389
PfMDH [1]; Temperature 81.5
  TSA melting curve raw fluorescence signal: 6211.993 and 6810.814 and 7010.574
PfMDH [1]; Temperature 82
  TSA melting curve raw fluorescence signal: 6164.6 and 6762.251 and 6958.299
PfMDH [1]; Temperature 82.5
  TSA melting curve raw fluorescence signal: 6116.092 and 6712.951 and 6905.437
PfMDH [1]; Temperature 83
  TSA melting curve raw fluorescence signal: 6067.721 and 6663.14 and 6852.004
PfMDH [1]; Temperature 83.5
  TSA melting curve raw fluorescence signal: 6019.674 and 6612.874 and 6798.049
PfMDH [1]; Temperature 84
  TSA melting curve raw fluorescence signal: 5972.405 and 6562.27 and 6744.245
PfMDH [1]; Temperature 84.5
  TSA melting curve raw fluorescence signal: 5926.625 and 6510.347 and 6690.517
PfMDH [1]; Temperature 85
  TSA melting curve raw fluorescence signal: 5882.391 and 6459.307 and 6637.567
PfMDH [1]; Temperature 85.5
  TSA melting curve raw fluorescence signal: 5838.459 and 6409.022 and 6584.837
PfMDH [1]; Temperature 86
  TSA melting curve raw fluorescence signal: 5794.143 and 6359.5 and 6531.78
PfMDH [1]; Temperature 86.5
  TSA melting curve raw fluorescence signal: 5749.377 and 6310.687 and 6478.281
PfMDH [1]; Temperature 87
  TSA melting curve raw fluorescence signal: 5703.739 and 6263.164 and 6424.447
PfMDH [1]; Temperature 87.5
  TSA melting curve raw fluorescence signal: 5656.691 and 6215.001 and 6369.065
PfMDH [1]; Temperature 88
  TSA melting curve raw fluorescence signal: 5609.372 and 6165.882 and 6313.087
PfMDH [1]; Temperature 88.5
  TSA melting curve raw fluorescence signal: 5562.587 and 6115.522 and 6256.819
PfMDH [1]; Temperature 89
  TSA melting curve raw fluorescence signal: 5515.924 and 6063.705 and 6199.979
PfMDH [1]; Temperature 89.5
  TSA melting curve raw fluorescence signal: 5468.97 and 6010.228 and 6142.345
PfMDH [1]; Temperature 90
  TSA melting curve raw fluorescence signal: 5422.458
PfMDH [2]; 63 μM
  Ki (best-fit value, substrate inhibition model): 63.00 ± 31.8
  Vmax (best-fit value): 645.7 ± 29.0
PfMDH [2]; 125 μM
  Ki (best-fit value, substrate inhibition model): 72.93 ± 41.9
  Vmax (best-fit value): 630.2 ± 28.5
PfMDH [2]; PfMDH + 63 uM, malate 0.078125 mM
  4PA kinetics raw data (rate): 0.0098 and 0.01006 and 0.00834
PfMDH [2]; PfMDH + 63 uM, malate 0.15625 mM
  4PA kinetics raw data (rate): 0.01266 and 0.01336 and 0.01325
PfMDH [2]; PfMDH + 63 uM, malate 0.3125 mM
  4PA kinetics raw data (rate): 0.01621 and 0.01654 and 0.01602
PfMDH [2]; PfMDH + 63 uM, malate 0.625 mM
  4PA kinetics raw data (rate): 0.02019 and 0.02009 and 0.02113
PfMDH [2]; PfMDH + 63 uM, malate 1.25 mM
  4PA kinetics raw data (rate): 0.02141 and 0.02369 and 0.02088
PfMDH [2]; PfMDH + 63 uM, malate 2.5 mM
  4PA kinetics raw data (rate): 0.02622 and 0.02453 and 0.02721
PfMDH [2]; PfMDH + 63 uM, malate 10 mM
  4PA kinetics raw data (rate): 0.02549 and 0.02349 and 0.01973
PfMDH [2]; PfMDH + 125 uM, malate 0.078125 mM
  4PA kinetics raw data (rate): 0.00804 and 0.006868 and 0.007099
PfMDH [2]; PfMDH + 125 uM, malate 0.15625 mM
  4PA kinetics raw data (rate): 0.01089 and 0.01117 and 0.0101
PfMDH [2]; PfMDH + 125 uM, malate 0.3125 mM
  4PA kinetics raw data (rate): 0.01419 and 0.01394 and 0.01404
PfMDH [2]; PfMDH + 125 uM, malate 0.625 mM
  4PA kinetics raw data (rate): 0.01376 and 0.01789 and 0.01385
PfMDH [2]; PfMDH + 125 uM, malate 1.25 mM
  4PA kinetics raw data (rate): 0.02005 and 0.02063 and 0.0175
PfMDH [2]; PfMDH + 125 uM, malate 2.5 mM
  4PA kinetics raw data (rate): 0.02038 and 0.02019 and 0.02077
PfMDH [2]; PfMDH + 125 uM, malate 10 mM
  4PA kinetics raw data (rate): 0.01925 and 0.01826 and 0.01944
PfMDH [2]; in presence of 63 μM compound
  Ki change vs control: 5 fold
PfMDH [2]; in presence of 125 μM compound
  Ki change vs control: 6 fold
PfMDH [2]; in the presence of 63 μM compound, control 967.8 ± 99.0
  Vmax: 645.7 ± 29.0 U mg^−1
PfMDH [2]; in the presence of 125 μM compound
  Vmax: 630.2 ± 28.5 U mg^−1
PfMDH [2]; vs malate
  mechanism of the inhibition: non-competitive

Reference: article PMC8355244, “A fragment-based approach identifies an allosteric pocket that impacts malate dehydrogenase activity” (Communications Biology, 2021)
